Reference: patent US10611748B2, “Xanthone derivatives for the treatment of hepatitis B virus disease” (Hoffmann-La Roche Inc., priority 2017, dated 2020)

Legend:
[1] = test system: extracellular HBeAg level (surrogate marker for cccDNA) in HepDES19 cells; assay: HepDES19 primary screen assay; assay type: cell-based, HBV; conditions: Hepatitis B virus, 120 h, 5 days compound incubation, HBeAg ELISA
Procedure, shortened: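 HepDES19 cells, Tet-withdrawn 8 days to induce pgRNA, then seeded 24 h before dosing with half-log compound dilutions (1% DMSO final) for 5 days at 37 °C. Extracellular HBeAg by ELISA, viability by CCK-8; IC50 from 4-parameter logistic fit.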

[2] = test system: cccDNA level in HepDES19 cells; assay: cccDNA Southern Blot assay; assay type: cell-based, HBV; conditions: 5 days' compound treatment, Hirt DNA, serial dilutions
Experimental: HepDES19 cells were seeded at 4×10^6 cells per T150 in the culture medium (Dulbecco's Modified Eagle Medium: Nutrient Mixture F-12 (DMEM:F12, Gibco Cat. 11320-82), 10% Fetal Bovine Serum (FBS, Clontech Cat. 631101), 0.1 mM Non-Essential Amino Acids Solution (NEAA, Gibco Cat. 11140-050), […] Penicillin-Streptomycin (PS, Invitrogen Cat. 15140-163), 500 μg/mL Geneticin (G418, Invitrogen Cat. 10131-027) in the absence of Tet for 8 days. These cells were seeded at the density of 1×10^6 cells per well in 6-well plate. At 24 hrs after seeding, serial dilutions of compounds made with DMSO (Sigma, Cat. D2650) were further diluted with the same culture medium as described above before they were added to the cells to reach desired final compound concentrations and 1% DMSO concentration. After 5 days' compound treatment, the cells growing in one well from 6-well plate were re-suspended with 500 μL re-suspension buffer (50 mM tris[hydroxymethyl]aminomethane pH 7.5), 10 mM ethylenediaminetetraacetic acid (EDTA), 50 μg/mL RNase A (Qiagen, Cat. 158922). 500 μL of 1.2% sodium dodecyl sulfate (SDS) was then added into the re-suspended cells to lyse the cells. After 15 minutes' incubation, 700 μL precipitation buffer (3M cesium chloride, 1M potassium acetate, 0.67M acetic acid) was added and the lysate was incubated at 4° C. for 2 h. The lysate was centrifuged at 15000 revolutions per minute (RPM) at 4° C. for 15 minutes. The supernatant was collected and loaded onto Qiagen miniprep columns (QIAprep spin Mini prep kit, Cat. No. 27016). After centrifugation for 1 minute at 15000 RPM, the column was washed once with 750 µL wash buffer PE from QIAprep spin Mini prep kit. 80 μL of double distilled water was loaded to the columns to elute Hirt DNA.
Hirt DNA of each sample was loaded into 1.2% lx tris-acetate electrophoresis (TAE) agarose gel and separated at 90 voltages for 3 hours. The gel was then treated in 50 mM NaAc—HAc, pH4.2 for 30 min at room temperature (RT), and then denatured by soaking in denaturation buffer (0.5 M sodium hydroxide, 1.5 M sodium chloride) at RT for 30-45 min. The gel was then treated with neutralization buffer (1M tris[hydroxymethyl]aminomethane pH7.4 and 1.5M NaCl) at RT for 30 to 45 min.
The gel was transferred onto a pre-wet Nylon membrane (GE life science, Hybond N+) by capillary transfer method overnight, followed by UV crosslinking. The membrane was transferred into a hybridization tube, then rinsed with double distilled water at 60° C. for 5 mins. 10 mL of hybridization buffer (Lab kits, China) was added, the resulting sample was rotated in hybridization oven at 60° C. for 1 hour. Digoxigenin (DIG)-labelled HBV probe (SEQ ID NO: 1) was denatured at 95° C. for 10 minutes, and then 7 μL of denatured probe was added to the hybridization tube, which was rotated in hybridization oven at 60° C. overnight.
On the second day, the membrane was washed according to the procedure of DIG wash and block buffer set kit (Roche, Cat. 11 585 762 001), and then incubated with 50 mL antibody solution (Antibody anti-Digoxigenin-AP Fab fragment (Roche Cat. 11093274910) diluted in fresh 1× blocking buffer at 1:10,000) for 1 hour. The membrane was washed with 50 mL washing buffer (1× Maleic buffer with 0.3% Tween-20) for 15 minutes twice, and equilibrated with 20 mL detection buffer (0.1M tris[hydroxymethyl]aminomethane pH9.5, 0.1M sodium chloride) for 5 minutes. CDP-Star substrate (Roche, Cat. 12041677001) was added to the membrane for 5 minutes, and then the membrane was scanned by Bio-Rad Visualize Image System (Biorad, ChemiDoc-MP, Serial No. 731BR00916).

| SMILES | IC50 [1] [µM] | cccDNA level in HepDES19 cells (Southern Blot) [2] |
| --- | --- | --- |
| O=C(O)C1CCN(c2ccc3c(=O)c4c(Cl)ccc(Cl)c4oc3c2)C1 (stereo not shown) [Example 26, 1-(5,8-dichloro-9-oxo-xanthen-3-yl)pyrrolidine-3-carboxylic Acid] | 2.36 | dose-dependently reduced cccDNA level |
| O=C(O)C1CCN(c2ccc3c(=O)c4cccc(F)c4oc3c2)C1 (stereo not shown) [Example 5, 1-(5-fluoro-9-oxo-xanthen-3-yl)pyrrolidine-3-carboxylic acid] | 3.33 | dose-dependently reduced cccDNA level |
| O=C(O)[C@@H]1CCN(c2ccc3c(=O)c4cccc(Cl)c4oc3c2)C1 [Example 3, (3R)-1-(5-chloro-9-oxo-xanthen-3-yl)pyrrolidine-3-carboxylic acid] | 1.24 | dose-dependently reduced cccDNA level |
| O=C(O)C1CCN(c2ccc3c(=O)c4cccc(Cl)c4oc3c2)C1 (stereo not shown) [Example 2, 1-(5-chloro-9-oxo-xanthen-3-yl)pyrrolidine-3-carboxylic acid] | 2.18 | dose-dependently reduced cccDNA level |
| O=C(O)[C@H]1CCN(c2ccc3c(=O)c4cccc(Cl)c4oc3c2)C1 [Example 4, (3S)-1-(5-chloro-9-oxo-xanthen-3-yl)pyrrolidine-3-carboxylic acid] | 2.18 | dose-dependently reduced cccDNA level |
